Source: patent US20030153512A1 (priority 2000, published 2003)
≈ marks a conversion by molar mass, not a printed value.

Assays:
[1] = Water solubility of saturated solutions in argon-saturated water, content by HPLC; type: physicochemical; details: saturated solution at room temperature in argon-saturated water, HPLC UV 420 nm
Experimental: HPLC conditions: column lichrospher-100-RP18-5 μ, 125×4 mm Running agent/gradient/flow Acetonitrile/acetic acid 0.2 and/or 2%, 1 ml/min Detection: UV 420 nm
The relevant straight calibration line was respectively determined with the individual compounds. […] The content of 20 μl each of the saturated solutions was determined by means of HPLC.

[2] = tested on: Raji cells; assay: Uptake in Raji cells by fluorescence microscopy; type: cell-based
Experimental: These studies were carried out by means of fluorescence microscopy, since curcumin and its two derivatives show fluorescence. […] Aliquots of the cells in medium were placed by pipetting onto poly-L-lysin-coated slides (to adhere the cells); the cells were covered with a cover glass after 30 minutes and stimulated by an appropriate filter using U.V. light.

[3] = tested on: granulocytes (PMN) from human blood; assay: Inhibition of the TPA-stimulated "oxygen burst" of granulocytes (chemiluminescence); type: cell-based; details: 100,000 granulocytes, TPA 100 nM, luminol and/or lucigenin, CL integral over one hour
Experimental: These studies were carried out by means of the inhibition of the “oxygen burst” of granulocytes (PMN) from human blood according to Hergenhahn et al. (1991) J. Cancer Res. Clin. Oncol. 117, 385-395, and Bouvier, Hergenhahn et al. (1993) Carcinogenesis 14, 1573-8. The granulocyte fraction from heparinized blood is enriched by agglutination of the erythrocytes with 2.5% dextran in PBS (30 min. at room temperature), freed from residual erythrocytes by lysis and used after washing with PBS in the test. In a total volume of 1 ml, 100,000 granulocytes each are admixed with luminol and/or lucigenin and heated to 37° C. in the chemiluminescence (CL) measuring device Biolumat LB 953 (EG&G Berthold, Wildbad); the cells are then stimulated with TPA at a final concentration of 100 nM. The CL curves are tracked for one hour; the integral underneath the curve is used as a standard for chemiluminescence.
When inhibitory substances are used, a concentration-dependent inhibitory effect results which manifests itself as a late rise, reduced amplitude of the maximum and partially as an early drop of the peak.

[4] = tested on: Epstein-Barr virus; assay: Inhibition of EBV induction (reactivation) in Raji-DR-LUC cells, luciferase activity; type: cell-based; details: 50,000 Raji-DR cells, 10 nM TPA, 72 hours
Experimental: The current studies were carried out with Raji-DR-LUC cells.
For this purpose, 50,000 Raji-DR cells were treated with 10 nM TPA minus/plus inhibitor (various concentrations) in a volume of 100 μl in a CO2 incubator for 72 hours. Following washing with PBS, the cells are lyzed; the luciferase activity is determined in luciferase buffer (20 mM tricins, 8 mM MgSO4, 0.1 mM EDTA, 30 mM DTE, pH 7.8) with luciferin/CoA ATP as a substrate in an always equal amount of cell lyzate. The induced luciferase activity per μg protein is determined in comparison with a calibration curve having an authentic luciferase. Inhibiting agents of EBV induction result in an induction of luciferase reduced as compared with the TPA control.

[5] = tested on: cell cultures; details: described in the literature; cited from earlier work
[6] = Raji cells, 3 hours, 15 μM, image analysis

Compound	water solubility [1]	fluorescence of cells (cell-associated compound) [2, 6]	antioxidative effect, rank order in series [3]	EBV inhibitory effect, rank order in series [4]	factor by which cell fluorescence was reduced (versus curcumin) [2, 6]	solubility ([1]; thermodynamic from solid)	time of maximum uptake in Raji cells ([2]; preliminary tests)	concentration in the medium at which chemopreventive effects occurred [5]
8,8′-bis-(B-D-glucopyranosyl)-curcumin [Curcumin diglucoside]	> 10700 µg/mL	just visible	curcumin >>curcumin monoglucoside curcumin diglucoside	curcumin>curcumin monoglucoside>curcumin diglucoside				
8-(β-D-glucopyranosyl)curcumin [Curcumin monoglucoside]	13.2 ± 0.9 µg/mL		curcumin >>curcumin monoglucoside curcumin diglucoside	curcumin>curcumin monoglucoside>curcumin diglucoside	10-100			
COc1cc(C=CC(=O)CC(=O)C=Cc2ccc(O)c(OC)c2)ccc1O [Curcumin, 1,7-bis(4-hydroxy-3-methoxyphenyl)-1,6-heptadiene-3,5-dione, reference compound]		very bright fluorescence	curcumin >>curcumin monoglucoside curcumin diglucoside	curcumin>curcumin monoglucoside>curcumin diglucoside		4 µg/mL (≈ 10.9 µM)	2 to 3 h	at least 10 μM
